The source of these data is US10160755B2 (Plexxikon Inc., priority 2015, dated 2018).

For this assay, the target named is T1, BA/F3-FLT3-ITD + F691L cells (Homo sapiens, UniProt P36888, F691L, cells depend on it, form not given).
T1 sequence (P36888 1-993 F691L): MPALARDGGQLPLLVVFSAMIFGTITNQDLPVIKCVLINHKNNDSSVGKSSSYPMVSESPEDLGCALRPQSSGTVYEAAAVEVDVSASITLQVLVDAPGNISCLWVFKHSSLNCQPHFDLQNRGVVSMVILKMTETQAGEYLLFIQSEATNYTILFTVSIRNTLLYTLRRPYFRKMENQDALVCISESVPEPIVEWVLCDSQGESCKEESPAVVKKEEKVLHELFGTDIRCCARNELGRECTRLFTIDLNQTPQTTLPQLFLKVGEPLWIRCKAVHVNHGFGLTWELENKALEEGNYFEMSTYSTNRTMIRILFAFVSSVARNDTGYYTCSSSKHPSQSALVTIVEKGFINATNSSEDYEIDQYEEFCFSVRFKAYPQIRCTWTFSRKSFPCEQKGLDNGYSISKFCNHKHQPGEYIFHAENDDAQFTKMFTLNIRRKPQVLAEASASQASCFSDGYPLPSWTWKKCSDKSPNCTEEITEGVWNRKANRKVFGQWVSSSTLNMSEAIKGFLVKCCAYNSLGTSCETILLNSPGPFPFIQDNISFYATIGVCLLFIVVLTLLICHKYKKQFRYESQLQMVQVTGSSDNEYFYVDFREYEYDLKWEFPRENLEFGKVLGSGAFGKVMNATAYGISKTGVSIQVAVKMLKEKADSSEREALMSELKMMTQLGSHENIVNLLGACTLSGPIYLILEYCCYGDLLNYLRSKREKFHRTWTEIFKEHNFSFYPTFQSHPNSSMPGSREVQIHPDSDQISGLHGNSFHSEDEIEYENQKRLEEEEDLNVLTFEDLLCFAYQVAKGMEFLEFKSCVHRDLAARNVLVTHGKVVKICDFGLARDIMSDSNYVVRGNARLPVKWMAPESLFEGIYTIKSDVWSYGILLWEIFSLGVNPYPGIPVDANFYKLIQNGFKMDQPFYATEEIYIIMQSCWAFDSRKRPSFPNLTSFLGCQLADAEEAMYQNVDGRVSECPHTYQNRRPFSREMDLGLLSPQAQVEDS
As to the kind of experiment: BA/F3-FLT3-ITD + F691L cell proliferation assay (CellTiter-Glo). Type of assay: cell-based, murine. The following applies: BaF3 FLT3 ITD/F691L cells; read-out: Cell Activity (IC50 μM) BaF3_FLT3_ITD/F691L. The essentials:
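Murine BA/F3 cells transfected with full-length FLT3 carrying ITD plus D835Y or F691L, grown without IL-3 so growth depends on FLT3. Seeded at 1×10^4 cells/well and dosed with 8 points, 10 to 0.0046 μM, 0.2% DMSO, for three days at 37 °C. IC50 from CellTiter-Glo luminescence (ATP content).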
(In general: Cellular ATP, detected with luciferase, serves as a proxy for viable cell number.)

For the compound `COc1cnc2[nH]cc(-c3ccc4ncn(-c5cccc(Cl)c5)c4c3)c2c1` [P-105, 1-(3-chlorophenyl)-6-(5-methoxy-1H-pyrrolo[2,3-b]pyridin-3-yl)benzimidazole], the GI50 is 0.0001 to 1 µM.
The figure for `COC(=O)N1CCCC(n2cnc3ccc(-c4c[nH]c5ncc(-c6ccnc(OC)c6)nc45)cc32)C1` (centres unmarked) [P-261, methyl 3-(6-(2-(2-methoxypyridin-4-yl)-5H-pyrrolo[2,3-b]pyrazin-7-yl)-1H-benzo[d]imidazol-1-yl)piperidine-1-carboxylate] is 0.0001 to 1 µM; for `CC(C)n1cnc2ccc(-c3c[nH]c4ncc(-c5cnn(C(F)F)c5)cc34)cc21` [P-267, 5-[1-(difluoromethyl)pyrazol-4-yl]-3-(3-isopropylbenzimidazol-5-yl)-1H-pyrrolo[2,3-b]pyridine] it is 0.0001 to 1 µM.
The figure for `O=C(Nc1cccc(F)c1)c1cnc2[nH]cc(-c3ccc4ncn(C5CCCNC5)c4c3)c2c1` (centres unmarked) [P-178, N-(3-fluorophenyl)-3-[3-(3-piperidyl)benzimidazol-5-yl]-1H-pyrrolo[2,3-b]pyridine-5-carboxamide] is 0.0001 to 1 µM; for `CC(C)S(=O)(=O)Nc1cccc(-c2cnc3[nH]cc(-c4ccc5ncn(C6CCCNC6)c5c4)c3c2)c1` (centres unmarked) [P-215, N-[3-[3-[3-(3-piperidyl)benzimidazol-5-yl]-1H-pyrrolo[2,3-b]pyridin-5-yl]phenyl]propane-2-sulfonamide] it is 0.0001 to 1 µM.
Take `CC(C)(C)n1cnc2ccc(-c3c[nH]c4ncc(-c5cccc(N6CCCS6(=O)=O)c5)nc34)cc21` [P-231, 2-[3-[7-(3-tert-butylbenzimidazol-5-yl)-5H-pyrrolo[2,3-b]pyrazin-2-yl]phenyl]-1,2-thiazolidine 1,1-dioxide]: the GI50 fell in the range of 0.0001 to 1 µM.
The figure for `COc1ncc(-c2cnc3[nH]cc(-c4ccc5ncn(C(C)C)c5c4)c3c2)cn1` [P-269, 1-isopropyl-6-[5-(2-methoxypyrimidin-5-yl)-1H-pyrrolo[2,3-b]pyridin-3-yl]benzimidazole] is 0.0001 to 1 µM; for `COc1cc(-c2cnc3[nH]cc(-c4ccc5ncn(C(C)(C)C)c5c4)c3c2)ccn1` [P-106, 1-tert-butyl-6-[5-(2-methoxy-4-pyridyl)-1H-pyrrolo[2,3-b]pyridin-3-yl]benzimidazole] it is 0.0001 to 1 µM; for `CC(C)(C)n1cnc2ccc(-c3c[nH]c4ncc(C#Cc5cccc(C#N)c5)cc34)cc21` [P-242, 3-[2-[3-(3-tert-butylbenzimidazol-5-yl)-1H-pyrrolo[2,3-b]pyridin-5-yl]ethynyl]benzonitrile] it is 1 to 10 µM.
For the compound `CC(C)S(=O)(=O)Nc1cccc(-c2cnc3[nH]cc(-c4ccc5ncn(C(C)(C)C)c5c4)c3n2)c1` [P-232, N-[3-[7-(3-tert-butylbenzimidazol-5-yl)-5H-pyrrolo[2,3-b]pyrazin-2-yl]phenyl]propane-2-sulfonamide], the GI50 was in the range of 0.0001 to 1 µM.
The figure for `COc1cnc2[nH]cc(-c3ccc4ncn(-c5cccc(F)c5)c4c3)c2c1` [P-128, 1-(3-fluorophenyl)-6-(5-methoxy-1H-pyrrolo[2,3-b]pyridin-3-yl)benzimidazole] is 0.0001 to 1 µM; for `C#Cc1cnc2[nH]cc(-c3ccc4ncn(C(C)(C)C)c4c3)c2c1` [P-244, 1-tert-butyl-6-(5-ethynyl-1H-pyrrolo[2,3-b]pyridin-3-yl)benzimidazole] it is 0.0001 to 1 µM.
The figure for `FC(F)(F)Oc1cccc(-c2cnc3[nH]cc(-c4ccc5ncn(C6CCCNC6)c5c4)c3n2)c1` (centres unmarked) [P-193, 7-[3-(3-piperidyl)benzimidazol-5-yl]-2-[3-(trifluoromethoxy)phenyl]-5H-pyrrolo[2,3-b]pyrazine] is 0.0001 to 1 µM.
Then `Cn1cnc2ccc(-c3c[nH]c4ncc(-c5cnn(CC(F)(F)F)c5)cc34)cc21` [P-175, 1-methyl-6-[5-[1-(2,2,2-trifluoroethyl)pyrazol-4-yl]-1H-pyrrolo[2,3-b]pyridin-3-yl]benzimidazole], with 0.0001 to 1 µM; and `COc1ncc(-c2cnc3[nH]cc(-c4ccc5ncn(C(C)(C)C)c5c4)c3c2)cn1` [P-265, 1-(tert-butyl)-6-(5-(2-methoxypyrimidin-5-yl)-1H-pyrrolo[2,3-b]pyridin-3-yl)-1H-benzo[d]imidazole], with 0.0001 to 1 µM.
In the case of `N#Cc1cccc(NC(=O)c2cnc3[nH]cc(-c4ccc5ncn(C6CCCNC6)c5c4)c3c2)c1` (centres unmarked) [P-219, N-(3-cyanophenyl)-3-(1-(piperidin-3-yl)-1H-benzo[d]imidazol-6-yl)-1H-pyrrolo[2,3-b]pyridine-5-carboxamide], the GI50 lay in the range of 1 to 10 µM.
The figure for `c1cc(N2CCOCC2)ccc1-c1cnc2[nH]cc(-c3ccc4ncn(C5CCCNC5)c4c3)c2n1` (centres unmarked) [P-101, 4-[4-[7-[3-(3-piperidyl)benzimidazol-5-yl]-5H-pyrrolo[2,3-b]pyrazin-2-yl]phenyl]morpholine] is 0.0001 to 1 µM; for `COc1cc(-c2cnc3[nH]cc(-c4ccc5ncn([C@@H]6CCCNC6)c5c4)c3n2)ccn1` [P-254, 2-(2-methoxy-4-pyridyl)-7-[3-[(3R)-3-piperidyl]benzimidazol-5-yl]-5H-pyrrolo[2,3-b]pyrazine] it is 0.0001 to 1 µM.
Then `c1cc(-c2cnc3[nH]cc(-c4ccc5ncn(C6CCCNC6)c5c4)c3c2)cc(N2CCOCC2)n1` (centres unmarked) [P-223, 4-[4-[3-[3-(3-piperidyl)benzimidazol-5-yl]-1H-pyrrolo[2,3-b]pyridin-5-yl]-2-pyridyl]morpholine], with 0.0001 to 1 µM; and `CCCS(=O)(=O)Nc1cccc(-c2cnc3[nH]cc(-c4ccc5ncn(C(C)(C)C)c5c4)c3n2)c1` [P-225, N-[3-[7-(3-tert-butylbenzimidazol-5-yl)-5H-pyrrolo[2,3-b]pyrazin-2-yl]phenyl]propane-1-sulfonamide], with 0.0001 to 1 µM; and `CC(C)(C)n1cnc2ccc(-c3c[nH]c4ncc(C(=O)Nc5cccc(C#N)c5)cc34)cc21` [P-218, 3-(3-tert-butylbenzimidazol-5-yl)-N-(3-cyanophenyl)-1H-pyrrolo[2,3-b]pyridine-5-carboxamide], with 0.0001 to 1 µM.
The figure for `N#Cc1cccc(C(=O)Nc2cnc3[nH]cc(-c4ccc5ncn(C6CCCNC6)c5c4)c3c2)c1` (centres unmarked) [P-236, 3-cyano-N-[3-[3-(3-piperidyl)benzimidazol-5-yl]-1H-pyrrolo[2,3-b]pyridin-5-yl]benzamide] is 0.0001 to 1 µM.
Turning to `CCCS(=O)(=O)Nc1cccc(-c2cnc3[nH]cc(-c4ccc5ncn(C(C)(C)C)c5c4)c3c2)c1` [P-216, N-[3-[3-(3-tert-butylbenzimidazol-5-yl)-1H-pyrrolo[2,3-b]pyridin-5-yl]phenyl]propane-1-sulfonamide], the GI50 lay within 0.0001 to 1 µM.
On to `CC(C)(C)n1cnc2ccc(-c3c[nH]c4ncc(-c5cccc(S(=O)(=O)N6CCCC6)c5)nc34)cc21` [P-229, 7-(3-tert-butylbenzimidazol-5-yl)-2-(3-pyrrolidin-1-ylsulfonylphenyl)-5H-pyrrolo[2,3-b]pyrazine], for which the GI50 lay in the range of 0.0001 to 1 µM.
The figure for `CN(c1cccc(-c2cnc3[nH]cc(-c4ccc5ncn(C)c5c4)c3c2)c1)S(C)(=O)=O` [P-120, N-methyl-N-[3-[3-(3-methylbenzimidazol-5-yl)-1H-pyrrolo[2,3-b]pyridin-5-yl]phenyl]methanesulfonamide] is 0.0001 to 1 µM.
Then `O=S1(=O)CCCCN1c1cccc(-c2cnc3[nH]cc(-c4ccc5ncn(C6CCCNC6)c5c4)c3c2)c1` (centres unmarked) [P-224, 2-[3-[3-[3-(3-piperidyl)benzimidazol-5-yl]-1H-pyrrolo[2,3-b]pyridin-5-yl]phenyl]thiazinane 1,1-dioxide], with 0.0001 to 1 µM.
The figure for `COc1cnc2[nH]cc(-c3ccc4ncn(-c5ccc(F)c(C)c5)c4c3)c2c1` [P-129, 1-(4-fluoro-3-methyl-phenyl)-6-(5-methoxy-1H-pyrrolo[2,3-b]pyridin-3-yl)benzimidazole] is 0.0001 to 1 µM.
Regarding `COc1cc(-c2cnc3[nH]cc(-c4ccc5ncn(C6CCCNC6)c5c4)c3n2)cc(OC)n1` (centres unmarked) [P-195, 2-(2,6-dimethoxy-4-pyridyl)-7-[3-(3-piperidyl)benzimidazol-5-yl]-5H-pyrrolo[2,3-b]pyrazine], the GI50 was 0.0001 to 1 µM.
As to `CN(c1cccc(-c2cnc3[nH]cc(-c4ccc5ncn(C)c5c4)c3n2)c1)S(C)(=O)=O` [P-150, N-methyl-N-[3-[7-(3-methylbenzimidazol-5-yl)-5H-pyrrolo[2,3-b]pyrazin-2-yl]phenyl]methanesulfonamide], the GI50 lay in the range of 0.0001 to 1 µM.
